# US20120064556A1, “LIPOPROTEIN LIPASE ASSAY” (THE RESEARCH FOUNDATION OF STATE UNIVERSTIY OF NEW YORK, priority 2010, published 2012)
# T1: human LPL (Homo sapiens, UniProt P06858)
# T1 construct: made in house; host or cells: HEK293 (conditioned medium, not purified)
# T1 sequence (P06858 28-475): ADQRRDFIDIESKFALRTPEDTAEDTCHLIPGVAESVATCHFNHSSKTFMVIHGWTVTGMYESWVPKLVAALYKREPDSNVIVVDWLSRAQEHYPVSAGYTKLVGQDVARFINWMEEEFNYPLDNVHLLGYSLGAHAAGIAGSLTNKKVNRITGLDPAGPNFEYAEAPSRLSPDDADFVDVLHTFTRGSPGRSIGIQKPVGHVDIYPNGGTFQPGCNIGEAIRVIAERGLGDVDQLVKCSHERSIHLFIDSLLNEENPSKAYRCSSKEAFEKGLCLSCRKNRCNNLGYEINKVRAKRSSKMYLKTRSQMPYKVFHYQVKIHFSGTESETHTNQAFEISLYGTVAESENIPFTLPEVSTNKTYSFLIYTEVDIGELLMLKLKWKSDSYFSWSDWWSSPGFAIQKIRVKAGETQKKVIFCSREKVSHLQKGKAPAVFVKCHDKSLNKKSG
# Experiments:
# [1] = solubility and shelf life of substrate in the assay buffer; type: physicochemical
# lipoprotein lipase (LPL) = assay: EnzChek substrate fluorescence assay of LPL activity; type: biochemical; conditions: for increase of LPL activity: over the concentration ranges tested (FIGS. 5A and 5B)
# Method: In FIG. 1, background substrate hydrolysis was deducted from each measurement, initial rate was plotted against substrate concentration and each data point is the mean of triplicate determinations.
# The effects of components that may be present in biological LPL samples and affect the assay were also evaluated and illustrated in FIG. 5. Addition of heparin and calcium increased LPL activity by about 6% over the concentration ranges tested, shown in FIGS. 5A and 5B, while HIS, added from 0-10% decreased the activity by about 12%, shown in FIG. 5C. Addition of NaCl increased the reaction rate, shown in FIG. 5D, with the highest rate, 46% higher than that without salt, occurring at 0.15 M. As NaCl was increased further, the reaction rate dropped, but even at 2.5 M was not reduced to that without NaCl. This implies that there is no inhibition of LPL activity by NaCl if apoC-II is not used in the assay.
# The SpectraMax® M2 plate reader and SoftMax® Pro 5 from MDS Analytical Technologies were used for fluorescent measurements. The optimal wavelength was determined to be […] with a 495 nm filter cutoff. The linear capacity of these instruments is up to 2.4 μmol/well. An assay was performed in a black 96-well plate from Costar® in the presence of 0.15 M NaCl, 20 mM Tris-HCl, and 0.0125% Zwittergent® and 1.5% fatty acid free BSA. A 4× working solution was freshly prepared with 0.6 M NaCl, 80 mM Tris-HCl and 6% fatty acid free BSA. The background hydrolysis rate of the substrate was about 1 pmol/min. In the typical assay, the amount of substrate hydrolyzed was less than about 5% of the available substrate.
# Enzymatic parameters were calculated using unquenched the BODIPY-C12 probe, the reaction rate in pmol/min was calculated. The rate of hydrolysis as determined from the continuous increase in fluorescence intensity is equal to the rate of separation of the quencher fatty acid from the substrate. Enzymatic parameters such as Vmax, Km, Kcat, detection limit, Z factors and correlation coefficient were calculated based on the standard definition of those parameters. The data is presented as mean plus standard deviation of three replicates and described below in Example 2 for a comparison of the inventive method and a traditional assay.
# human LPL [2] = target: T1, human LPL; assay: EnzChek assay of human LPL activity in conditioned media; type: biochemical; conditions: 25 μL conditioned medium mixed with 25 μL human LPL medium, 30 minutes on ice, 0.62 μM EnzChek substrate, p<0.05 (FIG. 6A)
# Method: Conditioned media was generated by transfection in HEK293 cells as is known. Medium obtained from cells expressing from an empty vector was included as a control for the LPL assay. No lipase activity was detected in the control medium. Pre and post-heparin mouse serum was obtained from blood drawn 5 minutes after the injection of 10 units heparin per kg body weight of the mouse.
# To determine whether the conditions of the assay are such that the two forms of the enzyme are maintained and can be differentiated by the biological activity of the lipase, two conditioned media were generated containing human LPL and ANGPTL4 respectively.
# (§1) Background substrate hydrolysis was deducted from each measurement. LPL activity is expressed as a percentage of the activity measured in the absence of ANGPTL4. The values are the mean +/− standard deviation in triplicate repeats, p<0.05.
# human LPL [3] = target: T1, human LPL; assay: radiolabeled triolein assay of human LPL activity in conditioned media; type: biochemical; conditions: same samples, radiolabeled triolein assay (FIG. 6B)
# Text: as §1
molecule,measurement,setting,value
"CCCCCCCCCCCCOCC(COC(=O)CCCC(=O)Oc1ccc2nc3ccc(=O)cc-3oc2c1C)OCCCCCCCCCCCC (racemic) [DGGR substrate, 1,2-o-dilauryl-rac-glycero-3-glutaric acid-(6′-methylresorufin) ester]",shelf life / precipitation in the assay buffer,[1],precipitated after only one week
same,solubility in the assay buffer,[1],limited solubility
[Cl-].[Na+] [NaCl],reaction rate higher than that without salt,"lipoprotein lipase (LPL); highest rate, at 0.15 M (FIG. 5D)",46%
same,inhibition of LPL activity,"lipoprotein lipase (LPL); up to 2.5 M, apoC-II not used in the assay",no inhibition
[Ca+2] [calcium],increase of LPL activity,lipoprotein lipase (LPL),about 6%
heparin [reference compound],increase of LPL activity,lipoprotein lipase (LPL),about 6%
"ANGPTL4 conditioned media: conditioned medium from transfected HEK293 cells containing ANGPTL4, an endogenous inhibitor of LPL (protein, UniProt Q9BY76 26-406, looked up, in conditioned medium of transfected HEK293 cells) Angiopoietin-related protein 4: GPVQSKSPRFASWDEMNVLAHGLLQLGQGLREHAERTRSQLSALERRLSACGSACQGTEGSTDLPLAPESRVDPEVLHSLQTQLKAQNSRIQQLFHKVAQQQRHLEKQHLRIQHLQSQFGLLDHKHLDHEVAKPARRKRLPEMAQPVDPAHNVSRLHRLPRDCQELFQVGERQSGLFEIQPQGSPPFLVNCKMTSDGGWTVIQRRHDGSVDFNRPWEAYKAGFGDPHGEFWLGLEKVHSITGDRNSRLAVQLRDWDGNAELLQFSVHLGGEDTAYSLQLTAPVAGQLGATTVPPSGLSVPFSTWDQDHDLRRDKNCAKSLSGGWWFGTCSHSNLNGQYFRSIPQQRQKLKKGIFWKTWRGRYYPLQATTMLIQPMAAEAAS",effect on LPL activity,human LPL [2],inhibited the LPL activity
same,effect on LPL activity,human LPL [3],comparable result
